Assay results from US8772504B2, “Substituted benzoxazole, benzimidazole, oxazolopyridine and imidazopyridine derivatives as gamma secretase modulators” (Janssen Pharmaceuticals, Inc., priority 2009, dated 2014).

How the values were obtained:
Aβ42 = assay: Screening for γ-secretase-modulating activity, Method 1: Aβ42 sandwich ELISA on SKNBE2 cell media; assay type: cell-based; conditions: SKNBE2 cells carrying APP 695 wild type
Description: (§1) Screening was carried out using SKNBE2 cells carrying the APP 695—wild type, grown in Dulbecco's Modified Eagle's Medium/Nutrient mixture F-12 (DMEM/NUT-mix F-12) (HAM) provided by Gibco (cat no. 31330-38) containing 5% Serum/Fe supplemented with 1% non-essential amino acids. Cells were grown to near confluency.
(§2) The screening was performed using the assay as described in Citron et al (1997) Nature Medicine 3: 67. Briefly, cells were plated in a 96-well plate at about 10^5 cells/ml one day prior to addition of compounds. Compounds were added to the cells in Ultraculture (Lonza, BE12-725F) supplemented with 1% glutamine (Invitrogen, 25030-024) for 18 hours. The media were assayed by two sandwich ELISAs, for Aβ42 and Aβtotal. Toxicity of the compounds was assayed by WST-1 cell proliferation reagent (Roche, 1 644 807) according to the manufacturer's protocol.
To quantify the amount of Aβ42 in the cell supernatant, commercially available Enzyme-Linked-Immunosorbent-Assay (ELISA) kits were used (Innotest® β-Amyloid(1-42), Innogenetics N.V., Ghent, Belgium). The Aβ42 ELISA was performed essentially according to the manufacturer's protocol. Briefly, the standards (dilutions of synthetic Aβ1-42) were prepared in polypropylene Eppendorf with final concentrations of 8000 down to 3.9 pg/ml (1/2 dilution step). Samples, standards and blanks (100 μl) were added to the anti-Aβ42-coated plate supplied with the kit (the capture antibody selectively recognizes the C-terminal end of the antigen). The plate was allowed to incubate 3 h at 25° C. in order to allow formation of the antibody-amyloid complex. Following this incubation and subsequent wash steps a selective anti-Aβ-antibody conjugate (biotinylated 3D6) was added and incubated for a minimum of 1 hour in order to allow formation of the antibody-Amyloid-antibody-complex. After incubation and appropriate wash steps, a Streptavidine-Peroxidase-Conjugate was added, followed 30 minutes later by an addition of 3,3′,5,5′-tetramethylbenzidine (TMB)/peroxide mixture, resulting in the conversion of the substrate into a coloured product. This reaction was stopped by the addition of sulfuric acid (0.9 N) and the colour intensity was measured by means of photometry with an ELISA-reader with a 450 nm filter.
(§3) To obtain the values reported in Table 3a, the sigmoidal dose response curves were analysed by computerised curve-fitting, with percent of inhibition plotted against compound concentration. A 4-parameter equation (model 205) in XLfit was used to determine the IC50. The top and the bottom of the curve were fixed to 100 and 0, respectively, and the hill slope was fixed to 1. The IC50 represents the concentration of a compound that is required for inhibiting a biological effect by 50% (Here, it is the concentration where Aβ peptide level is reduced by 50%).
(§4) To obtain the values reported in Table 3b, the data were calculated as percentage of the maximum amount of amyloid Beta 42 measured in the absence of the test compound. The sigmoidal dose response curves were analyzed using non-linear regression analysis with percentage of the control plotted against the log concentration of the compound. A 4-parameter equation was used to determine the IC50. The values reported in Table 3b are averaged IC50 values.

Aβtotal = assay: Screening for γ-secretase-modulating activity, Method 1: Aβtotal sandwich ELISA on SKNBE2 cell media; assay type: cell-based; conditions: SKNBE2 cells carrying APP 695 wild type
Description: as §1, §2
To quantify the amount of Aβtotal in the cell supernatant, samples and standards were added to a 6E10-coated plate. The plate was allowed to incubate overnight at 4° C. in order to allow formation of the antibody-amyloid complex. Following this incubation and subsequent wash steps a selective anti-Aβ-antibody conjugate (biotinylated 4G8) was added and incubated for a minimum of 1 hour in order to allow formation of the antibody-Amyloid-antibody-complex. After incubation and appropriate wash steps, a Streptavidine-Peroxidase-Conjugate was added, followed 30 minutes later by an addition of Quanta Blu fluorogenic peroxidase substrate according to the manufacturer's instructions (Pierce Corp., Rockford, Ill.).
as §3, §4

[1] = Homo sapiens, Table 3a, 18 hours, XLfit, top/bottom fixed to 100 and 0, hill slope 1
[2] = Homo sapiens, Table 3b, non-linear regression of % of control, averaged IC50 values
[3] = Table 3a, 18 hours, XLfit, top/bottom fixed to 100 and 0, hill slope 1
[4] = Table 3b, non-linear regression of % of control, averaged IC50 values

Structure (SMILES) | IC50 (Aβ42; [1]) [µM] | IC50 (Aβ42; [2]) [µM] | IC50 (Aβtotal; [1]) [µM] | IC50 (Aβtotal; [2]) [µM] | IC50 (Aβ42; [3]) [µM] | IC50 (Aβ42; [4]) [µM] | IC50 (Aβtotal; [3]) [µM] | IC50 (Aβtotal; [4]) [µM]
COc1cc(Nc2cccc3c2nc(CC2CCN(C(C)=O)CC2)n3C)ccc1-n1cnc(C)c1 [Compound 10] | 0.751 | 0.575 | > 30 | 29.5 |  |  |  | 
COc1cc(Nc2cccc3oc(-c4ccccc4Cl)nc23)ccc1-n1cnc(C)c1 [Compound 16] | 0.267 | 0.257 | > 10 | > 10 |  |  |  | 
COc1cc(Nc2cccc3oc(C4CCCCC4)nc23)ccc1-n1cnc(C)c1 [Compound 17] | 0.178 | 0.174 | > 3 | > 3 |  |  |  | 
COc1cc(Nc2cccc3c2nc(C)n3C(C)C)ccc1-n1cnc(C)n1 [Compound 21] |  |  |  |  | 0.905 | 0.891 | > 33 | 45.7
CCCCc1nc2c(Nc3ccc(-n4cnc(C)n4)c(F)c3)cccc2n1C [Compound 24] |  |  |  |  | 0.505 | 0.38 | 18 | 17.8
COc1cc(Nc2cccc3c2nc(CC(C)C)n3C)ccc1-n1cnc(C)c1 [Compound 25] |  |  |  |  | 0.019 | 0.019 | > 3 | > 3
Cc1ncn(-c2ccc(Nc3cccc4c3nc(CC(C)C)n4CC(C)C)cc2)n1 [Compound 26] |  |  |  |  | 0.517 | 0.708 | > 10 | > 10
COCCn1c(CC(C)C)nc2c(Nc3ccc(-n4cnc(C)n4)cc3)cccc21 [Compound 27] |  |  |  |  | 1.25 | 1.12 | > 10 | 17.4
COc1cc(Nc2cccc3oc(CC(C)C)nc23)ccc1-n1cnc(C)n1 [Compound 28] |  |  |  |  | 1.35 | 1.35 | > 3 | > 3
COc1cc(Nc2cccc3c2nc(OC(C)C)n3C)ccc1-n1cnc(C)c1 [Compound 31] |  |  |  |  | 0.55 | 0.501 | 29.7 | > 30
COc1cc(Nc2cccc3c2nc(CCC(F)(F)F)n3C)ccc1-n1cnc(C)c1 [Compound 34] |  |  |  |  | 0.051 | 0.043 | > 1 | > 1
COc1cc(Nc2cccc3oc(C4CCCC4)nc23)ccc1-n1cnc(C)c1 [Compound 37] |  |  |  |  | 0.266 | 0.275 | > 10 | > 10
COc1cc(Nc2cccc3oc(C4CCN(C(=O)OC(C)(C)C)CC4)nc23)ccc1-n1cnc(C)c1 [Compound 42] |  |  |  |  | 1.1 | 1.1 | > 3 | > 3
COc1cc(Nc2cccc3c2nc(CC2CCOCC2)n3C)ccc1-n1cnc(C)c1 [Compound 43] |  |  |  |  | 0.123 | 0.12 | > 1 | > 5
COc1cc(Nc2cccc3c2nc(-c2ccccc2C)n3Cc2ccccc2)ccc1-n1cnc(C)c1 [Compound 46] | 0.01 | 0.01 | > 1 | > 3 |  |  |  | 
COc1ccc(-c2nc3c(Nc4ccc(-n5cnc(C)c5)c(OC)c4)cccc3n2C)cc1 [Compound 47] |  |  |  |  | 0.016 | 0.013 | > 1 | > 3
COc1cccc(-c2nc3c(Nc4ccc(-n5cnc(C)n5)cc4)cccc3n2C)c1 [Compound 50] |  |  |  |  | 0.101 | 0.081 | > 10 | > 10
CCOc1cc(C)c(-c2nc3c(Nc4ccc(-n5cnc(C)n5)c(OC)c4)cccc3n2C)cc1C(C)C [Compound 58] |  |  |  |  | 0.068 | 0.065 | > 3 | > 3
COc1cc(Nc2cccc3[nH]c(-c4ccc(F)cc4)nc23)ccc1-n1cnc(C)c1 [Compound 62] |  |  |  |  | 0.114 | 0.195 | > 1 | > 3
COc1cc(Nc2cccc3c2nc(-c2ccc(F)cc2)n3C)ccc1-n1ccnc1 [Compound 63] |  |  |  |  | 0.023 | 0.022 | > 1 | > 3
Cn1c(-c2ccc(F)cc2)nc2c(Nc3ccc(-n4cncn4)c(F)c3)cccc21 [Compound 65] |  |  |  |  | 0.089 | 0.081 | > 3 | > 3
COc1cc(Nc2cccc3c2nc(-c2ccc(F)cc2)n3C)ccc1-n1cnc(C#N)c1 [Compound 72] |  |  |  |  | 0.72 | 0.724 | > 3 | > 3
COc1cc(Nc2cccc3c2nc(-c2ccc(F)cc2)n3Cc2ccccc2)ccc1-n1cnc(C)c1 [Compound 79] |  |  |  |  | 0.024 | 0.023 | > 10 | > 10

Further lines, results first:

IC50 (Aβ42; [1]) [µM] | IC50 (Aβ42; [2]) [µM] | IC50 (Aβtotal; [1]) [µM] | IC50 (Aβtotal; [2]) [µM] | IC50 (Aβ42; [3]) [µM] | IC50 (Aβ42; [4]) [µM] | IC50 (Aβtotal; [3]) [µM] | IC50 (Aβtotal; [4]) [µM] | Structure (SMILES)
1.59 | 1.26 | 12.1 | 16.6 |  |  |  |  | COc1cc(Nc2cccc3c2nc(CC2CCN(C)CC2)n3C)ccc1-n1cnc(C)c1 [Compound 11]
0.603 | 0.603 | > 10 | > 10 |  |  |  |  | Cc1ncnn1-c1ccc(Nc2nccc3c2nc(-c2ccc(F)cc2)n3C(C)C)cc1F [Compound 13]
0.132 | 0.132 | > 10 | > 10 |  |  |  |  | Cc1ncn(-c2ccc(Nc3cc(C(F)(F)F)cc4c3nc(-c3ccc(F)cc3)n4C)cn2)n1 [Compound 14]
 |  |  |  | 1.66 | 1.66 | > 10 | > 10 | COc1cc(Nc2cccc3c2nc(C)n3C)ccc1-n1cnc(C)c1 [Compound 19]
 |  |  |  | 1.09 | 0.437 | > 10 | > 10 | COc1cc(Nc2cccc3c2nc(C(C)(C)C)n3C)ccc1-n1cnc(C)c1 [Compound 29]
 |  |  |  | 0.79 | 0.794 | > 3 | > 3 | COc1cc(Nc2cccc3oc(C(C)(C)C)nc23)ccc1-n1cnc(C)c1 [Compound 30]
 |  |  |  | 0.216 | 0.209 | > 10 | > 10 | COCCCc1nc2c(Nc3ccc(-n4cnc(C)c4)c(OC)c3)cccc2n1C [Compound 32]
 |  |  |  | 0.069 | 0.087 | > 3 | > 5 | COc1cc(Nc2cccc3c2nc(N2CCCCC2)n3C)ccc1-n1cnc(C)c1 [Compound 39]
 |  |  |  | 0.427 | 0.398 | > 10 | > 10 | COc1ccccc1-c1nc2c(Nc3ccc(-n4cnc(C)c4)c(OC)c3)cccc2o1 [Compound 48]
 |  |  |  | 0.02 | 0.019 | > 3 | > 3 | COc1cccc(-c2nc3c(Nc4ccc(-n5cnc(C)n5)c(OC)c4)cccc3n2C)c1 [Compound 52]
 |  |  |  | 0.022 | 0.019 | > 1 | > 3 | COc1cccc(-c2nc3c(Nc4ccc(-n5cnc(C)n5)c(OC)c4)cccc3n2C(C)C)c1 [Compound 53]
 |  |  |  | 0.014 | 0.014 | > 1 | > 3 | CCOc1cc(C)c(Nc2nc3c(Nc4ccc(-n5cnc(C)c5)c(OC)c4)cccc3n2C)cc1C(C)C [Compound 60]
 |  |  |  | 0.048 | 0.049 | > 3 | > 3 | COc1cc(Nc2cccc3c2nc(-c2ccc(F)cc2)n3C)ccc1-n1cncn1 [Compound 64]
 |  |  |  | 0.19 | 0.191 | > 3 | > 3 | Cc1ncn(-c2ccc(Nc3cccc4c3nc(-c3ccc(F)cc3)n4C(C)(C)C)cc2)n1 [Compound 77]
